The target of the assay is TRKA (Homo sapiens (Human), UniProt P04629). The assay can be described thus: Isolated TRK enzyme assay (HTRF KinEASE-TK), TRKA. The conditions noted are these: read-out: Trka enzyme (IC50). The assay is classed as biochemical.

These results are taken from patent US8846698B2, “Pyrrolo[2,3-d]pyrimidine tropomysin-related kinase inhibitors” (Pfizer Limited, priority 2011, dated 2014).

TRKA, sequence (P04629 441-796): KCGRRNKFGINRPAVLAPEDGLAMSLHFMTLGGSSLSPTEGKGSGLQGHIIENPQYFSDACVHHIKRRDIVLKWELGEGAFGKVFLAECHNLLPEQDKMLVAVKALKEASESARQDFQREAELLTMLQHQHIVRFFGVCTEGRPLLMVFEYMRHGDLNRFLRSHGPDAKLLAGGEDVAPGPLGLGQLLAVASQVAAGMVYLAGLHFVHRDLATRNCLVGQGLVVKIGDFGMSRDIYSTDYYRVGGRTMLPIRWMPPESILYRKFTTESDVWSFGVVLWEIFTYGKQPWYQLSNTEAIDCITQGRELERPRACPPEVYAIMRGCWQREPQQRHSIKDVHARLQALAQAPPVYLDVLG

Take `O=C(Nc1cncc(C(=O)c2cn(C(CO)CO)c3ncncc23)c1)c1cc(F)cc(C(F)(F)F)c1` [Example 281, 3-fluoro-N-[5-({7-[2-hydroxy-1-(hydroxymethyl)ethyl]-7H-pyrrolo[2,3-d]pyrimidin-5-yl}carbonyl)pyridin-3-yl]-5-(trifluoromethyl)benzamide]: the half-maximal inhibitory concentration (IC50) amounted to 0.161 µM.

Consider `O=C(Cc1ccc(Cl)cn1)Nc1cncc(C(=O)c2cn(C(CO)CO)c3ncncc23)c1` [Example 282, 2-(5-chloropyridin-2-yl)-N-[5-({7-[2-hydroxy-1-(hydroxymethyl)ethyl]-7H-pyrrolo[2,3-d]pyrimidin-5-yl}carbonyl)pyridin-3-yl]acetamide], for which the IC50 amounted to 1.01 µM.

With `O=C(Cn1ccc(C(F)(F)F)n1)Nc1cncc(C(=O)c2cn(C(CO)CO)c3ncncc23)c1` [Example 283, N-[5-({7-[2-hydroxy-1-(hydroxymethyl)ethyl]-7H-pyrrolo[2,3-d]pyrimidin-5-yl}carbonyl)pyridin-3-yl]-2-[3-(trifluoromethyl)-1H-pyrazol-1-yl]acetamide], the IC50 was found to be 0.297 µM.

For the compound `CC(C)n1cc(C(=O)c2cncc(NC(=O)[C@@H](Cc3ccc(C(=O)c4ccccc4)cc3)NC(=O)OC(C)(C)C)c2)c2cncnc21` [Example 284, 4-benzoyl-N-alpha-(tert-butoxycarbonyl)-N-{5-[(7-isopropyl-7H-pyrrolo[2,3-d]pyrimidin-5-yl)carbonyl]pyridin-3-yl}-L-phenylalaninamide], the IC50 worked out at 2.02 µM.

For the compound `CC(C)n1cc(C(=O)c2cncc(NC(=O)[C@H](N)Cc3ccc(C(=O)c4ccccc4)cc3)c2)c2cncnc21` [Example 285, 4-benzoyl-N-{5-[(7-isopropyl-7H-pyrrolo[2,3-d]pyrimidin-5-yl)carbonyl]pyridin-3-yl}-D-phenylalaninamide], the IC50 turned out to be 7.82 µM.

Turning to `CC(C)n1cc(C(=O)c2cncc(NC(=O)[C@@H](N)Cc3ccc(C(=O)c4ccccc4)cc3)c2)c2cncnc21` [Example 287, 4-benzoyl-N-{5-[(7-isopropyl-7H-pyrrolo[2,3-d]pyrimidin-5-yl)carbonyl]pyridin-3-yl}-L-phenylalaninamide], the concentration for half-maximal inhibition (IC50) is 4.35 µM.

As to `CC(C)n1cc(C(=O)c2cncc(NC(=O)Cc3cccc(C(=O)c4ccccc4)c3)c2)c2cncnc21` [Example 288, 2-(3-benzoylphenyl)-N-(5-(7-isopropyl-7H-pyrrolo[2,3-d]pyrimidine-5-carbonyl)pyridin-3-yl)acetamide], the IC50 turned out to be 0.0431 µM.

Turning to `CC(C)n1cc(C(=O)c2cncc(NC(=O)Cc3ccc(C(=O)c4ccccc4)cc3)c2)c2cncnc21` [Example 289, 2-(4-benzoylphenyl)-N-(5-(7-isopropyl-7H-pyrrolo[2,3-d]pyrimidine-5-carbonyl)pyridin-3-yl)acetamide], the half-inhibitory concentration (IC50) was 1.37 µM.

With `CC(C)n1cc(C(=O)c2cncc(NC(=O)c3cccc(C4(C(F)(F)F)N=N4)c3)c2)c2cncnc21` [Example 290, N-{5-[(7-isopropyl-7H-pyrrolo[2,3-d]pyrimidin-5-yl)carbonyl]pyridin-3-yl}-3-[3-(trifluoromethyl)-3H-diaziren-3-yl]benzamide], the IC50 is 0.167 µM.

Turning to `CC(C)n1cc(C(=O)c2cncc(NC(=O)c3ccc(C4(C(F)(F)F)N=N4)cc3)c2)c2cncnc21` [Example 291, N-{5-[(7-isopropyl-7H-pyrrolo[2,3-d]pyrimidin-5-yl)carbonyl]pyridin-3-yl}-4-[3-(trifluoromethyl)-3H-diaziren-3-yl]benzamide], the 50% inhibitory concentration (IC50) was found to be 3.23 µM.

For `CC(C)n1cc(C(=O)c2cncc(NC(=O)c3cccc(C(=O)C(F)(F)F)c3)c2)c2cncnc21` [Example 292, N-{5-[(7-isopropyl-7H-pyrrolo[2,3-d]pyrimidin-5-yl)carbonyl]pyridin-3-yl}-3-(trifluoroacetyl)benzamide], the IC50 came out at 0.0377 µM.

Regarding `Cn1cc(C(=O)c2cncc(NC(=O)Nc3ccc(Cl)cc3)c2)c2cncnc21` [Example 293, 1-(4-chlorophenyl)-3-{5-[(7-methyl-7H-pyrrolo[2,3-d]pyrimidin-5-yl)carbonyl]pyridin-3-yl}urea], the 50% inhibitory concentration (IC50) was 0.0202 µM.

Regarding `Cn1cc(C(=O)c2cncc(NC(=O)Nc3ccc(C(F)(F)F)cc3)c2)c2cncnc21` [Example 294, 1-{5-[(7-methyl-7H-pyrrolo[2,3-d]pyrimidin-5-yl)carbonyl]pyridin-3-yl}-3-[4-(trifluoromethyl)phenyl]urea], the IC50 was found to be 0.0614 µM.

Regarding `Cn1cc(C(=O)c2cncc(NC(=O)Nc3cccc(C(F)(F)F)c3)c2)c2cncnc21` [Example 295, 1-{5-[(7-methyl-7H-pyrrolo[2,3-d]pyrimidin-5-yl)carbonyl]pyridin-3-yl}-3-[3-(trifluoromethyl)phenyl]urea], the IC50 worked out at 0.0319 µM.

Consider `Cn1cc(C(=O)c2cncc(NC(=O)Nc3ccc(OC(F)(F)F)cc3)c2)c2cncnc21` [Example 296, 1-{5-[(7-methyl-7H-pyrrolo[2,3-d]pyrimidin-5-yl)carbonyl]pyridin-3-yl}-3-[4-(trifluoromethoxy)phenyl]urea], for which the IC50 worked out at 0.0477 µM.

As to `CC(C)n1cc(C(=O)c2cncc(N(C)C(=O)Cc3ccc(Cl)cc3)c2)c2cncnc21` [Example 297, 2-(4-chlorophenyl)-N-{5-[(7-isopropyl-7H-pyrrolo[2,3-d]pyrimidin-5-yl)carbonyl]pyridin-3-yl}-N-methylacetamide], the 50% inhibitory concentration (IC50) stood at 0.299 µM.

`CC(C)n1cc(C(=O)c2cncc(N(C)C(=O)Cc3ccc(C#N)cc3)c2)c2cncnc21` [Example 298, 2-(4-cyanophenyl)-N-{5-[(7-isopropyl-7H-pyrrolo[2,3-d]pyrimidin-5-yl)carbonyl]pyridin-3-yl}-N-methylacetamide]: the IC50 came to 1.46 µM.

In the case of `O=C(Cc1ccc(Cl)cc1)Nc1cncc(C(=O)c2cn(C3(CO)COC3)c3ncncc23)c1` [Example 299, 2-(4-Chloro-phenyl)-N-{5-[7-(3-hydroxymethyl-oxetan-3-yl)-7H-pyrrolo[2,3-d]pyrimidine-5-carbonyl]-pyridin-3-yl}-acetamide], the IC50 is 0.539 µM.

As for `O=C(Cc1ccc(C(F)(F)F)cc1)Nc1cncc(C(=O)c2cn(C3(CO)COC3)c3ncncc23)c1` [Example 300, N-{5-[7-(3-Hydroxymethyl-oxetan-3-yl)-7H-pyrrolo[2,3-d]pyrimidine-5-carbonyl]-pyridin-3-yl}-2-(4-trifluoromethyl-phenyl)-acetamide], the IC50 was found to be 0.0522 µM.

`O=C(Cc1ccc(Cl)cn1)Nc1cncc(C(=O)c2cn(C3(CO)COC3)c3ncncc23)c1` [Example 301, 2-(5-chloropyridin-2-yl)-N-[5-({7-[3-(hydroxymethyl)oxetan-3-yl]-7H-pyrrolo[2,3-d]pyrimidin-5-yl}carbonyl)pyridin-3-yl]acetamide]: the IC50 amounted to 0.428 µM.

Consider `O=C(Cn1ccc(C(F)(F)F)n1)Nc1cncc(C(=O)c2cn(C3(CO)COC3)c3ncncc23)c1` [Example 302, N-[5-({7-[3-(hydroxymethyl)oxetan-3-yl]-7H-pyrrolo[2,3-d]pyrimidin-5-yl}carbonyl)pyridin-3-yl]-2-[3-(trifluoromethyl)-1H-pyrazol-1-yl]acetamide], for which the IC50 was determined as 0.156 µM.

Take `NC(=O)Cn1cc(C(=O)c2cncc(NC(=O)Cc3ccc(Cl)cc3)c2)c2cncnc21` [Example 303, N-(5-{[7-(2-amino-2-oxoethyl)-7H-pyrrolo[2,3-d]pyrimidin-5-yl]carbonyl}pyridin-3-yl)-2-(4-chlorophenyl)acetamide]: the half-inhibitory concentration (IC50) was 1.22 µM.
